Results published in patent US6518253B1, “Treatment of viral infections using the L-isomer of ribavirin” (priority 1999, dated 2003).
Read-outs that look alike come from different tables or passages of the source.

Key:
[1] = Cytotoxicity assay, influenza B test; assay type: cell-based; settings: cells infected with Influenza B (cell line not given); cells of the Influenza B test; read-out: Cytotoxicity (CC50) INFL.B
Procedure: (§1) In vitro testing for direct antiviral activity of Levovirin™ and Ribavirin against influenza A and B, parainfluenza 1 and 2, and respiratory syncytial virus were performed as described in Huffinan, J. H. et al. Antiviral Chem. and Chemother. 1997, 8: 75-83 and Barnard, D. L. et al. Antiviral Chem. and Chemother 1997, 8: 223-233. Anti-human immunodeficiency virus activity was assessed by the National Cancer Institute using a procedure designed to detect agents acting at any stage of the virus reproductive cycle [Weislow, O. W. et al., J. Natl. Cancer Inst. 1989, 81: 577-586]. Anti-hepatitis B (HBV) activity was monitored by using an assay as described by Marion et al., Hepatology 1987, 7: 724-731. Anti-HIV activity and cytotoxicity for Ribavirin was determined from previous data [McCormick, J. B., Lancet, 1998, II: 1367-1369.

[2] = Cytotoxicity assay, influenza A test; assay type: cell-based; settings: cells infected with Influenza A (cell line not given); cells of the Influenza A test; read-out: Cytotoxicity (CC50) INFL.A
Procedure: as §1

Influenza (INFL) B = assay: microbe, parasite or virus in culture; assay type: cell-based; settings: read-out: Dir.Antiviral activity (EC50) INFL.B
[3] = system: Concanavalin A Induced Hepatitis; assay: Concanavalin A induced hepatitis, serum ALT; settings: BALB/c mice, single i.p. dose 20 μg (1 mg/kg) 1 hr prior to i.v. 0.3 mg Con A; serum after 24 hr; PBS control about 1900 U/ml
[4] = system: SEB stimulated T cell expression of the TH1 cytokines IL-2, IFN-γ, and TNF-α; assay type: cell-based, human
[5] = rat, in vivo, po, 180 mg/kg
Influenza (INFL) A = assay type: cell-based; settings: read-out: Dir.Antiviral activity (EC50) INFL.A
[6] = system: respiratory syncytial virus (RSV); assay type: cell-based; settings: read-out: Dir.Antiviral activity (EC50) RSV
[7] = system: cells infected with Influenza B; assay: Cytotoxicity assay, influenza B test; assay type: cell-based; settings: cells of the Influenza B test; read-out: Cytotoxicity (CC50) INFL.B
Procedure: as §1

cells infected with HIV = settings: cells of the HIV test; Ribavirin value from previous data (McCormick, Lancet); read-out: Cytotoxicity (CC50) HIV; cited from earlier work
[8] = system: cells infected with Parainfluenza 3
Hepatitis B (HBV) = assay type: cell-based; settings: read-out: Dir.Antiviral activity (EC50) HBV
[9] = system: cells infected with Influenza A; assay: Cytotoxicity assay, influenza A test; assay type: cell-based; settings: cells of the Influenza A test; read-out: Cytotoxicity (CC50) INFL.A
Procedure: as §1

Parainfluenza (PARA) 3 = assay type: cell-based, Parainfluenza 3; settings: read-out: Dir.Antiviral activity (EC50) PARA 3
[10] = Four-week oral toxicity in rats; settings: oral administration, 180 mg/kg over four weeks
Parainfluenza (PARA) 1 = assay type: cell-based, Parainfluenza 1; settings: read-out: Dir.Antiviral activity (EC50) PARA 1
[11] = system: cells infected with Parainfluenza 1

NC(=O)c1ncn([C@H]2O[C@@H](CO)[C@H](O)[C@@H]2O)n1 [Levovirin™, 1-(β-L-ribofuranosyl)-1,2,4-triazole-3-carboxamide]
CC50 [1]: > 200 µM | CC50 [2]: > 200 µM | EC50 (Influenza (INFL) B; Influenza B virus): > 200 µM | Con A induced serum ALT level [3]: 954 U/ml | IFN-γ, mean percentage of activated control [4]: 122 ± 3 percentage of activated control | IL-2, mean percentage of activated control [4]: 131 ± 12 percentage of activated control | TNF-α, mean percentage of activated control [4]: 144 ± 7 percentage of activated control | Clinical pathology (hemolytic anemia, leukopenia) [5]: did not produce any observable clinical pathology

1-(5-Deoxy-β-D-ribo-furanosyl)-1,2,4-triazole-3-carboxamide [Ribavirin]
EC50 (Influenza (INFL) A): 6.1 µM | EC50 [6]: 5 µM | CC50 [7]: > 100 µM | CC50 (cells infected with HIV): > 40 µM | CC50 [8]: 480 µM | EC50 (Hepatitis B (HBV)): > 100 µM | CC50 [9]: 56 µM | CC50 (cells infected with HBV): 53 µM | EC50 (Parainfluenza (PARA) 3): 4 µM | Clinical pathology (hemolytic anemia, leukopenia) [10]: produced significant hemolytic anemia and leukopenia | EC50 (Parainfluenza (PARA) 1): 40 µM | CC50 [11]: > 1000 µM | EC50 (Influenza (INFL) B; Influenza B): 1.9 µM | Con A induced serum ALT level [3]: 969 U/ml | IFN-γ, mean percentage of activated control [4]: 131 ± 6 percentage of activated control | IL-2, mean percentage of activated control [4]: 143 ± 18 percentage of activated control | TNF-α, mean percentage of activated control [4]: 124 ± 4 percentage of activated control | CC50 (cells infected with RSV): 100 µM
